Laboratory results taken from ChEMBL document CHEMBL3244087, “Ergoline congeners as potential inhibitors of prolactin release. 3. Derivatives of 3-phenylpiperidine” (1977).

System: Rattus norvegicus
Assay: Inhibition of prolactin release in reserpinized rat assessed as reduction in serum prolactin level at 2 mg, ip after 1 hr post dose by radioimmunoassay relative to untreated control
Format: functional

Structure (SMILES)	inhibition (INH) [%]
COc1cc(C2CC(CC#N)CN(C)C2)c(OC)cc1C (stereo unspecified)	-13
CCOC(=O)C1=CC(c2cc(OC)c(C)cc2OC)CN(C)C1 (stereo unspecified)	-5
CCOC(=O)C1CC(c2cc(OC)c(C)cc2OC)CN(C)C1 (stereo unspecified)	5
COc1cc(C2CC(CO)CN(C)C2)c(OC)cc1C (stereo unspecified)	-2

System: Rattus norvegicus
Assay: Inhibition of prolactin release in reserpinized rat assessed as reduction in serum prolactin level at 1 mg, ip after 1 hr post dose by radioimmunoassay relative to untreated control
Format: functional

Structure (SMILES)	inhibition (INH) [%]
CCOC(=O)C1CN(C)CC(c2cc(OC)c(C)cc2OC)C1=O (stereo unspecified)	22
CN1CCc2cccc3c2[C@H]1Cc1ccc(O)c(O)c1-3 [APOMORPHINE]	29
